Patent US10632125B2, “MTH1 inhibitors for treatment of inflammatory and autoimmune conditions” (THOMAS HELLEDAYS STIFTELSE FÖR MEDICINSK FORSKNING, priority 2014, dated 2020)

biological target: MTH1 (Homo sapiens, UniProt P36639); assay: MTH1 enzymatic assay (malachite green, coupled to pyrophosphatase); type: biochemical; settings: not given

Row | IC50 [nM] | SMILES
1 | < 200 | [2H]C([2H])([2H])Nc1cc(-c2cccc(Cl)c2Cl)nc(N)n1 [Example 421, 6-(2,3-dichlorophenyl)-4-N-(^2H3)methylpyrimidine-2,4-diamine]

same assay, conditions: dGTP 100 μM, MTH1 6 nM; 96- or 384-well format; read-out: IC50

Row | IC50 [nM] | SMILES
2 | < 200 | Cc1cccc(-c2cc(NCCNS(=O)(=O)c3ccc(S(C)(=O)=O)cc3)nc(N)n2)c1C [Example 401, N-(2-{[2-Amino-6-(2,3-dimethylphenyl)pyrimidin-4-yl]amino}ethyl)-4-methanesulfonylbenzene-1-sulfonamide]
3 | < 200 | Cc1nc(CCNc2cc(-c3cccc(Cl)c3C)nc(N)n2)n[nH]1 [Example 412, 6-(3-chloro-2-methylphenyl)-4-N-[2-(5-methyl-1H-1,2,4-triazol-3-yl)ethyl]pyrimidine-2,4-diamine]
4 | < 200 | Cc1c(Cl)cccc1-c1cc(NCCc2ccc(S(=O)(=O)N(C)C)cc2)nc(N)n1 [Example 414, 4-(2-{[2-amino-6-(3-chloro-2-methylphenyl)pyrimidin-4-yl]amino}ethyl)-N,N-dimethylbenzene-1-sulfonamide]
5 | < 200 | Cc1cccc(-c2cc(NC3(Cc4ccc(Cl)cc4)CC3)nc(N)n2)c1C [Example 417, 4-N-{1-[(4-Chlorophenyl)methyl]cyclopropyl}-6-(2,3-dimethylphenyl)pyrimidine-2,4-diamine]
6 | < 200 | Cc1c(F)ccc(-c2cc(NCCc3ccc(S(N)(=O)=O)cc3)nc(N)n2)c1C [Example 425, 4-(2-{[2-amino-6-(4-fluoro-2,3-dimethylphenyl)pyrimidin-4-yl]amino}ethyl)benzene-1-sulfonamide]
7 | < 200 | Cc1ccc(Cl)cc1-c1cc(NCCc2ccc(S(N)(=O)=O)cc2)nc(N)n1 [Example 427, 4-(2-{[2-amino-6-(5-chloro-2-methylphenyl)pyrimidin-4-yl]amino}ethyl)benzene-1-sulfonamide]
8 | < 200 | Cc1c(-c2cc(NCCc3ccc(S(C)(=O)=O)cc3)nc(N)n2)ccc(Cl)c1Cl [Example 431, 6-(3,4-dichloro-2-methylphenyl)-4-N-[2-(4-methanesulfonylphenyl)ethyl]pyrimidine-2,4-diamine]
9 | < 200 | Nc1nc(NCCc2ccc(S(N)(=O)=O)cc2)cc(-c2ccc(F)cc2Cl)n1 [Example 433, 4-(2-{[2-amino-6-(2-chloro-4-fluorophenyl)pyrimidin-4-yl]amino}ethyl)benzene-1-sulfonamide]
10 | < 200 | Cc1cc(-c2cc(NCCc3ccc(S(N)(=O)=O)cc3)nc(N)n2)ccc1F [Example 435, 4-(2-{[2-amino-6-(4-fluoro-3-methylphenyl)pyrimidin-4-yl]amino}ethyl)benzene-1-sulfonamide]
11 | < 200 | Cc1c(C#N)cccc1-c1cc(NC2CC2)nc(N)n1 [Example 437, 3-[2-amino-6-(cyclopropylamino)pyrimidin-4-yl]-2-methylbenzonitrile]
12 | < 200 | C#CCNc1cc(-c2cccc(Cl)c2Cl)nc(N)n1 [Example 438, 6-(2,3-dichlorophenyl)-4-N-(prop-2-yn-1-yl)pyrimidine-2,4-diamine]
13 | < 200 | Cc1cccc(-c2cc(NCCc3c(C)n[nH]c3C)nc(N)n2)c1C [Example 440, 4-N-[2-(3,5-dimethyl-1H-pyrazol-4-yl)ethyl]-6-(2,3-dimethylphenyl)pyrimidine-2,4-diamine]
14 | < 200 | Cc1cccc(-c2cc(NCCNc3ccc(Cl)nn3)nc(N)n2)c1C [Example 441, 4-N-{2-[(6-chloropyridazin-3-yl)amino]ethyl}-6-(2,3-dimethylphenyl)pyrimidine-2,4-diamine]
15 | < 200 | Cc1cccc(-c2cc(NCCNc3cc(C#N)ccn3)nc(N)n2)c1C [Example 442, 2-[(2-{[2-amino-6-(2,3-dimethylphenyl)pyrimidin-4-yl]amino}ethyl)amino]pyridine-4-carbonitrile]
16 | < 200 | Cc1ccc(NCCNc2cc(-c3cccc(C)c3C)nc(N)n2)cc1F [Example 448, 6-(2,3-dimethylphenyl)-4-N-{2-[(3-fluoro-4-methylphenyl)amino]ethyl}pyrimidine-2,4-diamine]
17 | < 200 | Cc1cccc(-c2cc(NCCNc3ccc(Cl)c(Cl)c3)nc(N)n2)c1C [Example 449, 4-N-{2-[(3,4-dichlorophenyl)amino]ethyl}-6-(2,3-dimethylphenyl)pyrimidine-2,4-diamine]
18 | < 200 | Cc1cccc(-c2cc(NCCNc3ccc(Cl)cn3)nc(N)n2)c1C [Example 450, 4-N-{2-[(5-chloropyridin-2-yl)amino]ethyl}-6-(2,3-dimethylphenyl)pyrimidine-2,4-diamine]
19 | < 200 | Cc1cccc(-c2cc(NCCNc3ccc(S(N)(=O)=O)cc3)nc(N)n2)c1C [Example 452, 4-[(2-{[2-amino-6-(2,3-dimethylphenyl)pyrimidin-4-yl]amino}ethyl)amino]benzene-1-sulfonamide]
20 | < 200 | Cc1c(Cl)cccc1-c1cc(NCCc2ccc(Cl)cc2)nc(N)n1 [Example 461, 6-(3-chloro-2-methylphenyl)-4-N-[2-(4-chlorophenyl)ethyl]pyrimidine-2,4-diamine]
21 | < 200 | CNc1cc(-c2ccsc2)nc(N)n1 [Example 463, 4-N-methyl-6-(thiophen-3-yl)pyrimidine-2,4-diamine]
22 | < 200 | CNc1cc(-c2cc(C)cs2)nc(N)n1 [Example 464, 4-N-methyl-6-(4-methylthiophen-2-yl)pyrimidine-2,4-diamine]

Row | IC50 [nM] | SMILES
23 | < 200 | CNc1cc(-c2ccnn2C)nc(N)n1 [Example 465, 4-N-methyl-6-(1-methyl-1H-pyrazol-5-yl)pyrimidine-2,4-diamine]
24 | < 200 | Nc1nc(NCCNc2ccc(Br)cn2)cc(-c2cccc(Cl)c2Cl)n1 [Example 466, 4-N-{2-[(5-bromopyridin-2-yl)amino]ethyl}-6-(2,3-dichlorophenyl)pyrimidine-2,4-diamine]
25 | < 200 | CNc1cc(-c2cc[nH]c2)nc(N)n1 [Example 468, 4-N-methyl-6-(1H-pyrrol-3-yl)pyrimidine-2,4-diamine]
26 | < 200 | COCC(=O)NCCCCNc1cc(-c2cccc(Cl)c2Cl)nc(N)n1 [Example 469, N-(4-{[2-amino-6-(2,3-dichlorophenyl)pyrimidin-4-yl]amino}butyl)-2-methoxyacetamide]
27 | < 200 | Nc1nc(NCCCCNC(=O)C(F)(F)F)cc(-c2cccc(Cl)c2Cl)n1 [Example 470, N-(4-{[2-amino-6-(2,3-dichlorophenyl)pyrimidin-4-yl]amino}butyl)-2,2,2-trifluoroacetamide]
28 | < 200 | CS(=O)(=O)c1ccc(C(=O)NCCCCNc2cc(-c3cccc(Cl)c3Cl)nc(N)n2)cc1 [Example 471, N-(4-{[2-amino-6-(2,3-dichlorophenyl)pyrimidin-4-yl]amino}butyl)-4-methanesulfonylbenzamide]
29 | < 200 | Nc1nc(NCCCCNC(=O)c2ccno2)cc(-c2cccc(Cl)c2Cl)n1 [Example 472, N-(4-{[2-amino-6-(2,3-dichlorophenyl)pyrimidin-4-yl]amino}butyl)-1,2-oxazole-5-carboxamide]
30 | < 200 | Nc1nc(NCCCCNC(=O)c2ccc(Cl)c(Cl)c2)cc(-c2cccc(Cl)c2Cl)n1 [Example 473, N-(4-{[2-amino-6-(2,3-dichlorophenyl)pyrimidin-4-yl]amino}butyl)-3,4-dichlorobenzamide]
31 | < 200 | CC(C)(C)C(=O)NCCCCNc1cc(-c2cccc(Cl)c2Cl)nc(N)n1 [Example 474, N-(4-{[2-amino-6-(2,3-dichlorophenyl)pyrimidin-4-yl]amino}butyl)-2,2-dimethylpropanamide]
32 | < 200 | CS(=O)(=O)c1ccc(S(=O)(=O)NCCCCNc2cc(-c3cccc(Cl)c3Cl)nc(N)n2)cc1 [Example 475, N-(4-{[2-amino-6-(2,3-dichlorophenyl)pyrimidin-4-yl]amino}butyl)-4-methanesulfonylbenzene-1-sulfonamide]
33 | < 200 | CNc1cc(-c2ccoc2C)nc(N)n1 [Example 478, 4-N-methyl-6-(2-methylfuran-3-yl)pyrimidine-2,4-diamine]
34 | < 200 | CNc1cc(-c2ccc(CN3CCCC3)s2)nc(N)n1 [Example 479, 4-N-methyl-6-[5-(pyrrolidin-1-ylmethyl)thiophen-2-yl]pyrimidine-2,4-diamine]
35 | < 200 | Nc1nc(NCCc2ccc(Cl)cc2)cc(-c2ccccc2CO)n1 [Example 481, [2-(2-amino-6-{[2-(4-chlorophenyl)ethyl]amino}pyrimidin-4-yl)phenyl]methanol]
36 | < 200 | Cc1c(Cl)cccc1-c1cc(NC2CC2)nc(N)n1 [Example 482, 6-(3-chloro-2-methylphenyl)-4-N-cyclopropylpyrimidine-2,4-diamine]
37 | < 200 | Cc1c(Cl)cccc1-c1cc(NCCF)nc(N)n1 [Example 483, 6-(3-chloro-2-methylphenyl)-4-N-(2-fluoroethyl)pyrimidine-2,4-diamine]
38 | < 200 | Cc1cccc(-c2cc(NCCF)nc(N)n2)c1C [Example 484, 6-(2,3-dimethylphenyl)-4-N-(2-fluoroethyl)pyrimidine-2,4-diamine]
39 | < 200 | CNc1cc(-c2cnn(CCC(N)=O)c2)nc(N)n1 [Example 487, 3-{4-[2-amino-6-(methylamino)pyrimidin-4-yl]-1H-pyrazol-1-yl}propanamide]
40 | < 200 | COc1cc(C)c(NCCNc2cc(-c3cccc(C)c3C)nc(N)n2)cn1 [Example 490, 6-(2,3-dimethylphenyl)-4-N-{2-[(6-methoxy-4-methylpyridin-3-yl)amino]ethyl}pyrimidine-2,4-diamine]
41 | < 200 | NC(=O)COc1cccc(-c2cc(NCCc3ccc(Cl)cc3)nc(N)n2)c1 [Example 498, 2-[3-(2-amino-6-{[2-(4-chlorophenyl)ethyl]amino}pyrimidin-4-yl)phenoxy]acetamide]
42 | < 200 | Cc1cccc(-c2cc(NCCNc3cnccn3)nc(N)n2)c1C [Example 500, 6-(2,3-dimethylphenyl)-4-N-{2-[(pyrazin-2-yl)amino]ethyl}pyrimidine-2,4-diamine]
43 | < 200 | Cc1cccc(-c2cc(NCCNc3cc(Cl)ncn3)nc(N)n2)c1C [Example 501, 4-N-{2-[(6-chloropyrimidin-4-yl)amino]ethyl}-6-(2,3-dimethylphenyl)pyrimidine-2,4-diamine]
